Test system: alpha-MyHC
Test: alpha-MyHC cytoblot in neonatal rat ventricular myocytes (NRVM)
Assay type: cell-based
Settings: Rattus norvegicus, Ventricular myocyte, Table 2, 72 hours, concentration giving 50% of maximum response
Protocol: In vitro activity of each compound is measured using the alpha-MyHC cytoblot process. Briefly, neonatal rat ventricular myocytes (NRVM) at 120,000 cells/ml in HyQ DME/High modified culture media supplemented with 10% charcoal/dextran treated FBS, 0.1% Nutridoma-SP, 1:100 MEM non-essential amino acids, 1:50 MEM amino acids solution w/o L-Gln, 1 mM sodium pyruvate and 1:100 P/S/G, are plated on gelatin coated sterile 384-well plates (Costar 3712) at 6,000 cells per well. Cells are incubated overnight at 37° C. in 5% CO2 100% humidity. Following overnight growth the media is changed to HyQ DME/High modified culture media supplemented with 0.3% Nutridoma-SP, 1:100 MEM non-essential amino acids, 1:50 MEM amino acids solution w/o L-Gln, 1 mM sodium pyruvate and 1:100 P/S/G. Cells are then dosed with serial dilutions of each compound in DMSO. Each concentration in the dose range is dosed in quadruplicate. Dosing is done in such a way so that the final DMSO concentration was 0.44%. Compound dilutions are 3-fold with the final top concentration of 10 uM. […] Following dosing, the cells are incubated for 72 hours at 37° C. in 5% CO2 100% humidity and then processed with the cytoblot method. Briefly, cell media is aspirated and cell monolayers washed with PBS and fixed with 100% methanol for 30 minutes. Fixed cells are then blocked with PBS, 0.05% Tween-20, 1% BSA, for 1 hour. Following blocking, cells are incubated with primary alpha-MyHC-specific antibody (1:30 dilution of BA-G5 hybridoma conditioned media, ATCC HB276) for 1 hour. Following incubation with the primary antibody, cells are washed with PBS, 0.05% Tween-20, 1% BSA and incubated with secondary antibody (1:1000 dilution, goat-anti-mouse HRP, Southern Biotech, 1031-05) for 1 hour. Following incubation with the secondary antibody, wells are washed and incubated in SuperSignal, West Dura HRP-luminescence substrate for 30 seconds under shaking at room temperature. Luminescence is measured using a Packard Fusion plate reader. […] RLU values are converted into percent fraction of low control and dose responses are fitted to a sigmoidal 4-parameter equation (XLFit, IDBS) where the EC50 and Max Plateau values were extracted. […] Max Plateau is the […] maximum value determined by the dose response fit.

| EC50 | SMILES |
| --- | --- |
| 21.9 nM | CCOC(=O)C1=C(CC)Nc2sc(C(=O)c3cccnc3)c(N)c2C1c1ccncc1F (centres unmarked) [Compound 174, 3-amino-6-ethyl-4-(3 fluoro-pyridin-4-yl)-2-(pyridine-3-carbonyl)-4,7 dihydro-thieno[2,3-b]pyridine-5-carboxylic acid ethyl ester] |

Same assay, conditions: Rattus norvegicus, Ventricular myocyte, Table 4, 72 hours, concentration giving 50% of maximum response

| EC50 | SMILES |
| --- | --- |
| 3340 nM | CC(=O)C1=C(C)Nc2sc(C(=O)c3ccc(Cl)c(Cl)c3)c(N)c2C1(C)c1cccc(F)c1 (centres unmarked) [Compound 207, 1-[3-amino-2-(3,4 dichloro-benzoyl)-4-(3 fluoro-phenyl)-4,6-dimethyl-4,7 dihydro-thieno[2,3-b]pyridin-5-yl]-ethanone] |

Same assay, conditions: Table 1, 72 hours, concentration giving 50% of maximum response

| EC50 | SMILES |
| --- | --- |
| 17.1 nM | CCC(=O)C1=C(CC)Nc2sc(C(=O)c3ccc(Cl)c(Cl)c3)c(N)c2C1c1ccccc1F (racemic) [Compound 39, 1-[3-amino-2-(3,4-dichloro-benzoyl)-6-ethyl-4-(2-fluoro-phenyl)-4,7-dihydro-thieno[2,3b]pyridin-5-yl]-propan-1-one] |

Same assay, conditions: Table 1, 72 hours, fitted maximum, percent fraction of low control (vehicle), in %

| SMILES | Max Plateau |
| --- | --- |
| CCC(=O)C1=C(CC)Nc2sc(C(=O)c3ccc(F)c(F)c3)c(N)c2C1c1cc(F)cc(F)c1 (centres unmarked) [Compound 101] | 230.49 ± 17.13 |
| CCCC(=O)C1=C(CCC)Nc2sc(C(=O)c3cc(Cl)ccc3Cl)c(N)c2C1c1ccccc1 (centres unmarked) [Compound 94] | 153.83 ± 13.14 |
| CCCC(=O)C1=C(CCC)Nc2sc(C(=O)c3ccc(Cl)c(Cl)c3)c(N)c2C1c1ccccc1 (centres unmarked) [Compound 86] | 131.26 ± 2.34 |
| CCC(=O)C1=C(CC)Nc2sc(C(=O)c3ccc(Cl)cc3Cl)c(N)c2C1c1ccccc1 (centres unmarked) [Compound 70] | 191.97 ± 13.09 |
| CCC(=O)C1=C(CC)Nc2sc(C(=O)c3ccc(Cl)c(Cl)c3)c(N)c2C1c1ccc(O)cc1Cl (centres unmarked) [Compound 83] | 274.88 ± 44.56 |
| CC(=O)C1=C(C)Nc2sc(C(=O)c3ccc(Cl)c(Cl)c3)c(N)c2C1c1cc(Cl)cc(Cl)c1 (centres unmarked) [Compound 33] | 143.15 ± 21.22 |
| CCC(=O)C1=C(CC)Nc2sc(C(=O)c3ccc(Cl)c(Cl)c3)c(N)c2C1c1ccccc1F (racemic) [Compound 39, 1-[3-amino-2-(3,4-dichloro-benzoyl)-6-ethyl-4-(2-fluoro-phenyl)-4,7-dihydro-thieno[2,3b]pyridin-5-yl]-propan-1-one] | 272.61 ± 37.32 |
| CC(=O)C1=C(C)Nc2sc(C(=O)c3ccc(Cl)c(Cl)c3)c(N)c2C1c1cccs1 (centres unmarked) [Compound 41] | 178.47 ± 7.82 |
| CC(=O)C1=C(C)Nc2sc(C(=O)c3ccc(Cl)c(Cl)c3)c(N)c2C1c1ccc(C(C)(C)C)cc1 (centres unmarked) [Compound 32] | 100.00 ± 0.00 |
| CCC(=O)C1=C(CC)Nc2sc(C(=O)c3cc(F)cc(F)c3)c(N)c2C1c1ccccc1 (centres unmarked) [Compound 76] | 230.70 ± 23.22 |
| CC(=O)C1=C(C)Nc2sc(C(=O)c3ccccc3)c(N)c2C1c1cccnc1 (centres unmarked) [Compound 20] | 127.35 ± 23.71 |
| CC(=O)C1=C(C)Nc2sc(C(=O)c3ccccc3)c(N)c2C1c1ccccc1F (centres unmarked) [Compound 24] | 260.35 ± 43.53 |
| CCC(=O)C1=C(CC)Nc2sc(C(=O)c3ccc(Cl)c(Cl)c3)c(N)c2C1c1ccccc1 (centres unmarked) [Compound 36] | 256.56 ± 24.93 |
| CCC(=O)C1=C(CC)Nc2sc(C(=O)c3ccc(Cl)c(Cl)c3)c(N)c2C1c1cccc([N+](=O)[O-])c1 (centres unmarked) [Compound 58] | 232.20 ± 56.57 |
| CCC(=O)C1=C(CC)Nc2sc(C(=O)c3ccc(F)c(F)c3)c(N)c2C1c1ccccc1 (centres unmarked) [Compound 72] | 223.99 ± 24.51 |
| CCC(=O)C1=C(CC)Nc2sc(C(=O)c3cc(C(C)(C)C)c(O)c(C(C)(C)C)c3)c(N)c2C1c1ccccc1 (centres unmarked) [Compound 90] | 300.00 ± 0.00 |
| COc1ccccc1C1C(C(C)=O)=C(C)Nc2sc(C(=O)c3ccccc3)c(N)c21 (centres unmarked) [Compound 18] | 215.25 ± 44.08 |
| CC(=O)C1=C(C)Nc2sc(C(=O)c3ccc(C)c(C)c3)c(N)c2C1c1ccccc1 (centres unmarked) [Compound 8] | 172.29 ± 9.66 |
| CCC(=O)C1=C(CC)Nc2sc(C(=O)c3cccc(C(=O)O)c3)c(N)c2C1c1ccccc1 (centres unmarked) [Compound 77] | 220.00 ± 10.00 |

| SMILES | Max Plateau |
| --- | --- |
| CC(=O)C1=C(C)Nc2sc(C(=O)c3ccc(Cl)c(Cl)c3)c(N)c2C1c1cc(F)cc(F)c1 (centres unmarked) [Compound 55] | 229.93 ± 37.33 |
| CCC(=O)C1=C(CC)Nc2sc(C(=O)c3ccc(F)cc3)c(N)c2C1c1ccccc1 (centres unmarked) [Compound 79] | 241.90 ± 15.79 |
| CCC(=O)C1=C(CC)Nc2sc(C(=O)c3ccccc3Br)c(N)c2C1c1ccccc1 (centres unmarked) [Compound 106] | 244.21 ± 29.53 |
| CC(=O)C1=C(C)Nc2sc(C(=O)c3ccc(Cl)c(Cl)c3)c(N)c2C1c1ccc(C(F)(F)F)cc1 (centres unmarked) [Compound 48] | 190.81 ± 37.09 |
| CCC(=O)C1=C(CC)Nc2sc(C(=O)c3cc(C(F)(F)F)cc(C(F)(F)F)c3)c(N)c2C1c1ccccc1 (centres unmarked) [Compound 73] | 205.27 ± 38.78 |
| CC(=O)C1=C(C)Nc2sc(C(=O)c3ccc(Cl)c(Cl)c3)c(N)c2C1c1ccc(F)cc1 (centres unmarked) [Compound 50] | 190.79 ± 27.94 |
| CC(=O)C1=C(C)Nc2sc(C(=O)c3ccc(Cl)c(Cl)c3)c(N)c2C1c1ccc(Br)cc1 (centres unmarked) [Compound 22] | 174.35 ± 23.39 |
| CCC(=O)C1=C(CC)Nc2sc(C(=O)c3ccc(Cl)c(Cl)c3)c(N)c2C1c1ccnc(Cl)c1 (centres unmarked) [Compound 99] | 264.37 ± 33.84 |
| CCC(=O)C1=C(CC)Nc2sc(C(=O)c3ccc(Cl)c(Cl)c3)c(N)c2C1c1ccccc1C(F)(F)F (centres unmarked) [Compound 60] | 100.00 ± 0.00 |
| CCC(=O)C1=C(CC)Nc2sc(C(=O)c3ccc(Cl)c(Cl)c3)c(N)c2C1c1ccc(OC)cc1F (centres unmarked) [Compound 81] | 184.00 ± 15.51 |
| CC(=O)C1=C(C)Nc2sc(C(=O)c3ccc(Cl)c(Cl)c3)c(N)c2C1c1ccc(Cl)c(Cl)c1 (centres unmarked) [Compound 47] | 173.47 ± 25.64 |
| CCC(=O)C1=C(CC)Nc2sc(C(=O)c3ccccc3Cl)c(N)c2C1c1ccccc1 (centres unmarked) [Compound 82] | 245.96 ± 30.73 |
| CC(=O)C1=C(C)Nc2sc(C(=O)c3ccc(Cl)c(Cl)c3)c(N)c2C1c1ccc[nH]1 (centres unmarked) [Compound 42] | 160.56 ± 20.02 |
| CCC(=O)C1=C(CC)Nc2sc(C(=O)c3ccccc3)c(N)c2C1c1ccccc1F (centres unmarked) [Compound 78] | 269.77 ± 35.30 |
| COc1cccc(C2C(C(C)=O)=C(C)Nc3sc(C(=O)c4ccccc4)c(N)c32)c1 (centres unmarked) [Compound 15] | 126.50 ± 24.27 |
| CCC(=O)C1=C(CC)Nc2sc(C(=O)c3ccc(Cl)c(C)c3)c(N)c2C1c1ccccc1 (centres unmarked) [Compound 89] | 230.09 ± 19.81 |
| CCC(=O)C1=C(CC)Nc2sc(C(=O)c3ccc(Cl)cc3)c(N)c2C1c1ccccc1 (centres unmarked) [Compound 80] | 226.13 ± 5.25 |
| CCC(=O)C1=C(CC)Nc2sc(C(=O)c3ccc(Cl)c(Cl)c3)c(N)c2C1c1ccccc1Cl (centres unmarked) [Compound 38] | 288.93 ± 52.81 |

Same assay, conditions: Table 2, 72 hours, fitted maximum, percent fraction of low control (vehicle), in %

| SMILES | Max Plateau |
| --- | --- |
| CCC1=C(C(=O)OC)C(c2ccccc2F)c2c(sc(C(=O)c3cccc([N+](=O)[O-])c3)c2N)N1 (centres unmarked) [Compound 140] | 266.63 |
| CCOC(=O)C1=C(CC)Nc2sc(C(=O)c3ccc(Cl)c(Cl)c3)c(N)c2C1c1ccccc1F (centres unmarked) [Compound 142] | 194.32 |
| CCC1=C(C(=O)OC)C(c2c(F)cccc2F)c2c(sc(C(=O)c3cccc([N+](=O)[O-])c3)c2N)N1 (centres unmarked) [Compound 141] | 261.69 |
| CCC1=C(C(=O)OC)C(c2ccnc(F)c2)c2c(sc(C(=O)c3cccc(Cl)c3)c2N)N1 (racemic) [Compound 175] | 289.91 |
| COC(=O)C1=C(C2CC2)Nc2sc(C(=O)c3ccc(Cl)c(Cl)c3)c(N)c2C1c1ccccc1F (centres unmarked) [Compound 144] | 187.17 |
| COC(=O)C1=C(C(C)C)Nc2sc(C(=O)c3ccc(Cl)c(Cl)c3)c(N)c2C1c1cccc([N+](=O)[O-])c1 (centres unmarked) [Compound 134] | 98.33 |
| COC(=O)C1=C(C2CC2)Nc2sc(C(=O)c3cccc(Cl)c3)c(N)c2C1c1ccnc(F)c1 (racemic) [Compound 176] | 218.25 |
| CCOC(=O)C1=C(C)Nc2sc(C(=O)c3ccc(Cl)c(Cl)c3)c(N)c2C1c1ccccc1 (centres unmarked) [Compound 113] | 256.38 |
| CCC1=C(C(=O)OC)C(c2ccccc2F)c2c(sc(C(=O)c3cccc(C#N)c3)c2N)N1 (centres unmarked) [Compound 164] | 279.90 |
| CCC1=C(C(=O)OC2CCCCC2)C(c2ccccc2)c2c(sc(C(=O)c3ccc(Cl)c(Cl)c3)c2N)N1 (centres unmarked) [Compound 160] | 186.95 |
| CCC1=C(C(=O)OC)C(c2cc(F)cc(F)c2)c2c(sc(C(=O)c3ccc(F)c(F)c3)c2N)N1 (centres unmarked) [Compound 170] | 262.16 |
| CCC1=C(C(=O)OC)C(c2ccccc2F)c2c(sc(C(=O)c3cccc(Cl)c3)c2N)N1 (centres unmarked) [Compound 167] | 255.95 |

Same assay, conditions: Table 5, 72 hours, fitted maximum, percent fraction of low control (vehicle), in %

| SMILES | Max Plateau |
| --- | --- |
| COCCOCN1C(C)=C(C(C)=O)C(c2ccccc2)c2c1sc(C(=O)c1ccccc1)c2N (racemic) [Compound 209] | 192.74 |

From patent US20090306373A1, “4,7-DIHYDROTHIENO[2,3-B]PYRIDINE COMPOUNDS AND PHARMACEUTICAL COMPOSITIONS” (priority 2005, published 2009)
